Legend:
3-nitrotyrosine (3-NT) = test: 3-nitrotyrosine expression in substantia nigra, Western blot and immunostaining; type: in vivo, C57BL/6 mice
Protocol: (§1) For checking inflammatory and oxidative stress markers, mice were gavaged diapocynin (300 mg/kg dose) 1 day before MPTP treatment (pre-treatment) and continued for another 4 days of co-treatment with MPTP. In the sub-acute MPTP regimen, MPTP (25 mg/kg) was injected intraperitoneally once per day from day 2 to day 7. Control mice received saline at the same dosage.
(§2) Four days after MPTP treatment, mice were perfused with 4% paraformaldehyde (PFA) and post-fixed with PFA and 30% sucrose, respectively. Next, fixed brains were cut into 30 μm sections and kept in 30% sucrose-ethylene glycol solutions at −20° C. On the day of staining, sections were rinsed with phosphate-buffered saline (PBS) and incubated with different primary antibodies, including anti-IBA-1 (DAKO, Carpinteria, Calif.), anti-GFAP (Millipore, Billerica, Mass.), anti-iNOS (Santa Cruz Biotechnology, Santa Cruz, Calif.), anti-3NT (Millipore), anti-4HNE (R&D Systems, Minneapolis, Minn.) and anti-gp91phox (Santa Cruz Biotechnology) for overnight at 4° C. Appropriate secondary antibodies (Alexa Fluor 488, 594, or 555 from Invitrogen, Carlsbad, Calif.) were used followed by incubation with 10 μg/ml Hoechst 33342 for 5 min at room temperature to stain the nucleus. Sections were viewed under a Nikon inverted fluorescence microscope (model TE-2000U; Nikon, Tokyo, Japan). […]

NOS2 = test: LPS-induced NOS2 protein expression in BV2 cells, Western blot; type: cell-based, mouse; conditions: diapocynin 10 μM 30 min pretreatment, LPS 1 μg/ml 24 hr, back to basal level or below
Protocol: Two cell models of neuroinflammation were used to evaluate the anti-neuroinflammatory property of diapocynin including the mouse BV2 microglial cell line, as well as primary microglia isolated from mouse brains. BV2 cells were obtained from the American Tissue Culture Collection. BV2 cells were maintained in RPMI containing 10% FBS and 100 units of pen/strep at 37° C. and 5% CO2. For treatments, RPMI containing 2% FBS and 100 units of pen/strep was used.
BV2 cell lysates containing equal amounts of protein were loaded in each lane and separated on a 10% SDS-PAGE gel. After separation, the protein was transferred to a nitrocellulose membrane. Non-specific binding sites were blocked with Li-cor blocking buffer for 45 min. The membranes were then treated with primary antibodies directed against NOS2 (mouse monoclonal 1:200) and p67phox (rabbit polyclonal 1:200). To confirm equal amounts of protein were loaded, membranes were also probed for β-actin with a β-actin antibody (dilution of 1:10,000). Secondary antibodies, donkey anti-mouse (Invitrogen) and conjugated anti-rabbit IgG (Rockland), were used at a dilution of 1:10,000 for 1 hr at room temperature. The membranes were imaged and captured using a Li-COR Odyssey infrared imaging system and software.

IBA-1 = IBA-1 expression in substantia nigra (microglial activation), immunostaining; type: in vivo, C57BL/6 mice; conditions: diapocynin 300 mg/kg gavage, 1 day pre-treatment + 4 days co-treatment with MPTP 25 mg/kg i.p.
Protocol: as §1, §2

COc1cc(C(C)=O)cc(-c2cc(C(C)=O)cc(OC)c2O)c1O [diapocynin]
MPTP-induced expression of 3-NT in substantia nigra (3-nitrotyrosine (3-NT); diapocynin 300 mg/kg gavage, MPTP 25 mg/kg i.p.): attenuated
TH positive cells colocalized with 3-NT (3-nitrotyrosine (3-NT); double-labeling, MPTP-treated mice that also received diapocynin 300 mg/kg): very few
reducing LPS-induced NOS2 protein expression (NOS2): extremely effective
IBA-1 protein expression in substantia nigra (IBA-1): inhibition

Reference: patent US8962600B2, “Neuroprotective compounds and their use” (The Medical College of Wisconsin, Inc., priority 2009, dated 2015)
